“And” between values parts separate entries of the source, which are not always exact repeats. Identical values can stand only once.
Legend:
[1] = Pharmacokinetic study in beagle dogs; assay type: in vivo; conditions: for BA: PO; for BA / Tmax / AUC(0-inf) / AUC(0-t) / Cmax / MRT last / half-life: beagle dogs
From the text: Male beagle dogs were purchased from Marshall, Beijing, China. They were housed under controlled humidity, temperature, and a 12L:12D lighting schedule. Before the experiment, the animals were fed less than 300 g/day for 2 days and those with a body weight around 7.0 ± 0.5 kg were selected for the pharmacokinetic study (n = 3). They were fasted overnight before the experiments but allowed to drink water. This study was reviewed, assessed, and approved by the Institutional Animal Care and Use Committee (IACUC) of the Korea Institute of Toxicology (KIT). The project identification codes were N117008 and N116047, signed on 31 May 2017. For the experiments, 0.5-mL blood samples were collected from each animal at selected intervals and loaded into K2-EDTA tubes. After centrifugation at 13,200 rpm for 5 min, quantitative analysis was performed using LC-MS/MS. Acetic acid buffer (0.1 M) at pH 4.0 with 20% PEG400 was selected as the intravenous solution for ABN401 and WinNonlinTM (Version 5.2.1, Pharsight, USA) was used to calculate the pharmacokinetic parameters (i.e., T1/2: terminal half-life, Cmax: maximum observed peak concentration, Tmax: time to reach Cmax, AUClast: area under the time-concentration curve from zero to the last quantifiable time-point, AUCinf: area under the time-concentration curve from zero to infinity, MRTlast: mean residence time from zero to the last quantifiable time-point). The bioavailability (BA) of each dose was calculated using the following equation:Bioavailability = (AUClast_po/AUClast_iv) × 100(5)
HPLC system (Agilent 1200, Santa Clara, CA, USA), consisting of a binary pump, a degasser, and a refrigerated autosampler (at 10 °C), was used in this study. Analytical samples were separated on the Agilent Eclipse XDB-C18 (3.5 um, 2.1 × 50 mm) at 23 °C. The mobile phase was composed of solvent A (10 mM ammonium formate in purified water) and solvent B (0.1 % formic acid in acetonitrile) and delivered at a flow rate of 0.3 mL/min. In this study, the gradient separation (i.e., the initial condition of the mobile phase consisted of 80% of solvent A and 20% of solvent B, then solvent A was decreased to 0% within 2 min and maintained for 5 min, followed by an increase to 80% within 0.2 min, maintained until 10 min) was used with a 10-min run time per sample. The MS system was composed of an API 4000 Sciex triple quadruple mass spectrometer (AB Sciex, Framingham, MA, USA). The triple quadrupole mass spectrometer was equipped with a turbo ion spray source. The MS/MS detection involved multiple reaction-monitoring in the positive ionization mode. The intensive tracer ion mass for each compound was 567.5 → 467.2 for ABN401 and 237.3 → 194.11 for carbamazepine as an internal standard. The conditions for the electrospray interface were: curtain gas, 20 psi; collision gas, medium; ion spray voltage, 5000 V; temperature, 500°C; ion source gas 1, 50 psi and ion source gas 2, 55 psi. The optimized voltage parameters for the analytes were as follows: declustering potential (61 V), entrance potential (10 V), collision energy (28 V), and collision cell exit potential (12 V). Data acquisition, quantification, and calculations were performed with the Analyst software version 1.4.2 (AB Sciex, Framingham, MA, USA).

[2] = set-up: method as in doi:10.1016/j.dmpk.2016.10.205; conditions: rats; cited from earlier work
[3] = Dissolution test, USP Apparatus 2; assay type: physicochemical; conditions: for time to reach 100% release: 50 and 200 mg
Description: A dissolution test was carried out according to USP 36 Apparatus 2 (paddle method) at 100 rpm using 900 mL of dissolution medium maintained at 37 ± 0.5 °C (Varian 705 DS; Varian, Cary, NC, USA). Each capsule was enclosed in a stationary sinker (20 × 12 mm) to prevent the capsule from floating on the surface of the dissolution medium or sticking to the inner surface of the dissolution vessels (n = 4). The drug content was analyzed with an HPLC system using samples collected in Eppendorf tubes and centrifuged for 1 min.

Dynamic vapor sorption = assay type: physicochemical; conditions: 25 °C, 5% to 95% RH
Description: Moisture sorption analyses were utilized using a VTI-SA vapor sorption analyzer (TA Instruments, New Castle, DE, USA). API was placed into the sample holder. The percentage of relative humidity (% RH) in the chamber was increased from 5% to 95% RH for moisture adsorption, followed by a decrease in % RH from 95% to 5% for moisture desorption. A drying phase (i.e., 40 °C, less than 0.01% weight loss in 2 min) was set to run before to the analysis. The temperature was set at a 25 °C throughout the analysis. The program criteria were set to 0.0001% weight change or 2 min stability of weight gained or lost before the program could proceed to the next set parameter.

[4] = male, beagle, dog, plasma, iv, 1 mg/kg, mean ± SD
[5] = male, beagle, dog, plasma, po, 1 mg/kg, capsule with MCC, mean ± SD
[6] = male, beagle, dog, plasma, po, 5 mg/kg, capsule with MCC, mean ± SD
[7] = male, beagle, dog, plasma, po, 5 mg/kg, capsule without MCC, mean ± SD
[8] = male, beagle, dog, plasma, po, 10 mg/kg, capsule with MCC, mean ± SD

CN1CCN(Cc2ccc(-c3cnc(N4CCOC(Cn5nnc6ncc(-c7cnn(C)c7)nc65)C4)nc3)cc2)CC1 (centres unmarked) [ABN401]
BA ([1]; 1 mg/kg, capsule with MCC, mean ± SD): 28.3 ± 15.8% | BA ([1]; 5 mg/kg, capsule with MCC, mean ± SD): 30.7% and 30.7 ± 1.7% | BA ([1]; 5 mg/kg, capsule without MCC, mean ± SD): 30.7% and 30.7 ± 15.1% | BA ([1]; 10 mg/kg, capsule with MCC, mean ± SD): 11.3 ± 2.7% | Tmax ([1]; male, beagle, dog, plasma, iv, 1 mg/kg): 0.083 h | AUC(0-inf) [1, 4]: 287 ± 108 ng·h/mL | AUC(0-t) [1, 4]: 266 ± 105 ng·h/mL | Cmax [1, 4]: 308 ± 271 ng/mL | MRT last [1, 4]: 1.5 ± 0.7 h | half-life [1, 4]: 1.9 ± 0.7 h | AUC(0-inf) [1, 5]: 96.2 ± 40.7 ng·h/mL | AUC(0-t) [1, 5]: 75.4 ± 42 ng·h/mL | Cmax [1, 5]: 8 ± 3.8 ng/mL | MRT last [1, 5]: 7.6 ± 2.5 h | Tmax [1, 5]: 1.3 ± 0.6 h | half-life [1, 5]: 9.4 ± 3.2 h | AUC(0-inf) [1, 6]: 456 ± 28.5 ng·h/mL | AUC(0-t) [1, 6]: 409 ± 23 ng·h/mL | Cmax [1, 6]: 50.8 ± 12.4 ng/mL | MRT last [1, 6]: 8.6 ± 2.7 h | Tmax [1, 6]: 1.5 ± 0.7 h | half-life [1, 6]: 7.6 ± 4.5 h | AUC(0-inf) [1, 7]: 425 ± 218 ng·h/mL | AUC(0-t) [1, 7]: 409 ± 201 ng·h/mL | Cmax [1, 7]: 60.3 ± 29.1 ng/mL | MRT last [1, 7]: 6.4 ± 0.7 h | Tmax [1, 7]: 2 h | half-life [1, 7]: 4.9 ± 0.9 h | Tmax ([1]; male, beagle, dog, plasma, po, 10 mg/kg, across the doses 1, 5, 10 mg/kg): 1.3 to 2 h | AUC(0-inf) [1, 8]: 424 ± 186 ng·h/mL | AUC(0-t) [1, 8]: 302 ± 72 ng·h/mL | Cmax [1, 8]: 52.5 ± 13.5 ng/mL | MRT last [1, 8]: 6.3 ± 3.4 h | Tmax [1, 8]: 2 h | half-life [1, 8]: 7.7 ± 5.8 h | bioavailability ([1]; male, beagle, dog, plasma, oral, dogs, except at 10 mg/kg): ~30% | absolute bioavailability [2]: 45% | dissolved in less than 45 min ([3]; 50 mg physical blend capsules with and without excipients (starch, MCC), pH 1.2 medium): above 85% | time to reach 100% release ([3]; high shear granulated blend in capsule): ≤ 60 min | time to reach 100% release ([3]; optimized granulation blend in capsule, pH 1.2 medium): ≤ 30 min | moisture adsorption (Dynamic vapor sorption): relatively less adsorptive to moisture

Source: publication PMC7076440, “New Preclinical Development of a c-Met Inhibitor and Its Combined Anti-Tumor Effect in c-Met-Amplified NSCLC” (Pharmaceutics, 2020)
